According to patent US20090317842A1, “Methods and Tools for The Therapy of Neurodegenerative Pathologies” (EXONHIT THERAPEUTICS SA, priority 2006, published 2009):

Key:
sAPPalpha [1] = experiment: sAPPalpha production in HEK293 cells over-expressing human APP (ELISA and Western blot); assay type: cell-based; settings: HEK293 cells stably over-expressing human APP; variable concentrations; 24 hours; FIG. 5
Experimental: HEK293 cells transfected in a stable manner over-expressing human APP were kept in Modified Eagle medium containing Earle salt and supplemented by 10% fetal calf serum (FCS), 2 mM L-glutamine (Sigma, Lyon, France), 1× Nonessential Amino Acids and antibiotics. The cells were treated for 48 hours after spreading variable concentrations of the molecules indicated on 10-cm plates, or with DMSO as a carrier, for 24 hours. The sAPPalpha had been measured by ELISA and Western blot by means of commercially available antibodies.

sAPPalpha [2] = experiment: sAPPalpha production by cortical neurons (Western blot); assay type: cell-based, Wistar rat; settings: 0.2 and 2 μM for 24 h; Western blot densitometry; versus non-treated cultures; FIG. 6
Experimental: The production of sAPPalpha was measured in cortical neurons isolated from 17-day-old Wistar rat embryos. The cells are obtained from cortical structures that are dissected into a solution containing 0.25% trypsin. The dissociated cells are seeded at a density of 500,000 per cm^2 in a Neurobasal medium containing additives (1×B27, 2 mM L-glutamine, 0.6% glucose, antibiotics and antimycotics, as well as 2% horse serum) in culture dishes coated with 6 μg/mL, of polyornithine. The cells are kept at 37° C. and 5% CO2. 24 hours after seeding, the cells are treated with 5 μM AraC (5 cytosine arabinofuranoside) as an antimitotic agent. After 4 days in vitro, half the medium is exchanged for medium without horse serum and the culture is kept for maturation in this medium for 7 to 10 days. The sAPPalpha was measured by Western blot by means of antibodies available commercially after one change of medium and accumulation in fresh medium for 24 hours. Quantification was done by densitometric analyses of scanned autoradiographic images. […] The results presented are the mean±SEM of three independent experiments performed in duplicate and are expressed the form of percentage of the control (non-treated cultures).

sAPPalpha [3] = experiment: sAPPalpha production in vivo in guinea pig brain (ELISA); settings: 10 mg/kg per os once a day for 15 days; guinea pig cortices; versus excipient; p<1E-4; FIG. 7
Experimental: The production of sAPPalpha was studied in vivo in the guinea pig, a physiological model for APP processing in the brain. The etazolate or the excipient (physiological saline solution) was administered to male Hartley albino guinea pigs, weighing 250-270 g at the beginning of the experiment, once a day for 15 consecutive days, per os in a dose of 10 mg/kg. One h after the last administration, the guinea pigs were sacrificed and the brains immediately extracted, frozen in nitrogen and stored at −80° C. The cortices were homogenized at 4° C. in a pH 7.5 20 mM Tris base solution containing 0.2% Triton X-100, 50 μg/mL, gentamicin and a protease inhibitor cocktail. The soluble sAPPalpha was measured by an ELISA test and the results normalized with regard to the quantity of proteins present in the extracts.

cortical neurons = experiment: Neuroprotection against Aβ25-35 amyloid peptide toxicity in neuronal cultures (MTT test); assay type: cell-based, Wistar rat; settings: Aβ25-35 33.5 μM
Experimental: Aβ25-35 peptide contains the neurotoxic fragment of the amyloid peptide and is a tool classically used to study the neuroprotective effects of compounds. At the beginning of each experiment, the neuronal cultures aged 7-10 days are changed with fresh culture medium and treated with the etazolate inhibitor compound, six hours before the addition of Aβ25-35 amyloid peptide at a concentration of 33.5 μM In a classical and reproducible manner, this concentration generates 30% to 40% toxicity in neuronal cultures. Several experiments are undertaken to characterize the neuroprotective effect of etazolate. […] In order to determine whether it is the inhibition of sAPPalpha or its production that provides the neuroprotective effect of etazolate against amyloid peptide, a neutralizing anti-sAPPα antibody (3E9 antibody) and alpha secretase inhibitors are respectively used. For the neutralization of sAPPα, 3E9 antibody (5 μg/ml) is added to the cortical cells at the same time as the etazolate. Two alpha secretase inhibitors, the compound Furin Inhibitor […], Sohn J H, Lee […], Mook-Jung I. Furin is an endogenous regulator of alpha-secretase associated APP processing. Biochem Biophys Res Commun. 2006 Oct. 20; 349(2):654-9.) and TAPI (Slack […]. […] Biochem J. 2001 Aug. 1; 357(Pt 3):787-94) are used in pretreatment one hour before the addition of the etazolate. All the treatments are effected at least twice and in at least two different cultures. After an incubation of 48 hours, the toxicity is measured by an MTT test. The results, normalized to the untreated mean, are statistically analyzed by the Wilcoxon test. The significant value is determined at p less than or equal to 0.05. The toxicity is measured by using the MTT test. After incubation with the compounds, MTT is added at a final concentration of 0.5 mg/mL by wells. The plates are then incubated for 30 minutes at 37° C. at night. The medium is drawn off and the crystals are resuspended in 500 μL of DMSO (dimethylsulfoxide). The absorbance at 550 nm is read and the viability percentage is calculated.

Compound | sAPPalpha secretion (sAPPalpha [1]) | salting out of sAPPalpha from cortical neurons (sAPPalpha [2]) | quantity of sAPPalpha measured in the brains (sAPPalpha [3]) | cellular viability (cortical neurons; 0.2 μM etazolate, 48 hours, FIG. 8) [%] | protector effect on neuronal death induced by Aβ25-35 (cortical neurons; co-treatment of neurons, 48 hours, FIG. 8) | effect on the neuroprotection induced by etazolate (cortical neurons; agent added before or with etazolate, cortical neurons, FIGS. 8-10)
CCOC(=O)c1cnc2c(cnn2CC)c1NN=C(C)C [etazolate] | induces sAPPalpha secretion | stimulates the salting out of sAPPalpha | increase by a factor of three | 90 | dose-dependent protector effect | 
TAPI [reference compound] |  |  |  |  |  | inhibited
